# Tests used:
# LeuT [1] = target: LeuT (Aquifex aeolicus, UniProt O67854, A289M, form not given); assay: DEER spectroscopy; type: binding; settings: 200 mM NaCl; 4-fold molar excess of Leu over LeuT
# LeuT [2] = target: LeuT (Aquifex aeolicus, UniProt O67854); assay: DEER spectroscopy; type: binding; settings: 200 mM NaCl; 4-fold molar excess of Leu over LeuT
compound,measurement,setting,value
CC(C)C[C@H](N)C(=O)O [Leu],"DEER spectroscopy (Q-band, 83 K), ligand-induced conformational change",LeuT [1],LeuT A289M with Na^+ and Leu bound in the vestibule has a destabilized bound structure
same,"DEER spectroscopy (Q-band, 83 K), ligand-induced conformational change",LeuT [2],Subsequent Leu binding resets the closed EL4 conformation in the occluded conformation of the transporter

# — PMC4046646 (Molecular psychiatry, 2013)
